Measurements as given in patent US20060069132A1, “Azolecarboxamide herbicides” (priority 2004, published 2006).

How the values were obtained:
rice = assay: Test B flooded paddy test; type: in vivo, Oryza sativa; settings: scale 0 to 100 (0 no effect, 100 complete control)
How it was run: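 Plants grow to 1- to 4-leaf stage (2–18 cm) for postemergence spraying, or to 2-leaf stage for the paddy test. Formulated compound is applied. Greenhouse holding lasts 13–15 days. Response is scored visually relative to controls, 0 no effect to 100 complete control; a dash means no result.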

wheat = assay: Test B postemergence herbicide test; type: in vivo, Triticum aestivum; set-up: key to Wheat plant response rating: 0 = no effect, 100 = complete control
How it was run: (§1)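 Treated at 2-leaf (paddy) or 1–4-leaf, 2–18 cm (postemergence); greenhouse 13–15 d; visual score vs control, 0 none to 100 complete control; dash = not tested.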

corn = assay: Test B pre-/postemergence herbicide test; type: in vivo, Zea mays
How it was run: (§2)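 Pre: seeds sown, then sprayed. Post: 1–4-leaf plants (2–18 cm) sprayed at the same time. Paddy: flooded, treated at 2-leaf stage. Formulation: non-phytotoxic solvent with surfactant. Greenhouse 13–15 days; visual 0–100 score relative to controls.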

wild oat = assay: Test B postemergence herbicide test; type: in vivo, Avena fatua
How it was run: as §1

giant foxtail = assay: Test B pre-/postemergence herbicide test; type: in vivo, Setaria faberi
How it was run: as §2

pigweed = assay: Test B pre-/postemergence herbicide test; type: in vivo, Amaranthus retroflexus
How it was run: as §2

morningglory = assay: Test B pre-/postemergence herbicide test; type: in vivo, Ipomoea coccinea
How it was run: (§3)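 Response was scored visually 13 to 15 days after treatment against untreated greenhouse controls, 0 meaning no effect and 100 complete control. Formulations (solvent mixture plus surfactant) went onto soil after planting, onto foliage of 1- to 4-leaf plants, and onto 2-leaf plants in a flooded paddy set including rice and barnyardgrass.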

barnyardgrass [1] = assay: Test B pre-/postemergence herbicide test; type: in vivo, Echinochloa crus-galli; settings: for Barnyardgrass plant response rating: scale 0 (no effect) to 100 (complete control)
How it was run: as §3

cocklebur = assay: Test B pre-/postemergence herbicide test; type: in vivo, Xanthium strumarium
How it was run: as §3

Surinam grass = assay: Test B pre-/postemergence herbicide test; type: in vivo, Urochloa decumbens
How it was run: as §2

ducksalad = assay: Test B flooded paddy test; type: in vivo, Heteranthera limosa; settings: scale 0 to 100 (0 no effect, 100 complete control)
How it was run: (§4)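 Visual control ratings, 0–100 versus untreated controls, taken after 13 to 15 days in the greenhouse. Blackgrass received a postemergence spray at the 1- to 4-leaf stage (2–18 cm); ducksalad, umbrella sedge and barnyardgrass were flooded-paddy treated at 2 leaves.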

large crabgrass = assay: Test B pre-/postemergence herbicide test; type: in vivo, Digitaria sanguinalis
How it was run: as §2

[2] = system: small flower umbrella sedge; assay: Test B flooded paddy test; type: in vivo, Cyperus difformis; settings: scale 0 to 100 (0 no effect, 100 complete control)
How it was run: as §4

lambsquarters = assay: Test B pre-/postemergence herbicide test; type: in vivo, Chenopodium album
How it was run: as §2

velvetleaf = assay: Test B pre-/postemergence herbicide test; type: in vivo, Abutilon theophrasti
How it was run: as §2

blackgrass = assay: Test B postemergence herbicide test; type: in vivo, Alopecurus myosuroides
How it was run: as §4

barnyardgrass [3] = assay: Test B flooded paddy test; type: in vivo, Echinochloa crus-galli; settings: scale 0 to 100 (0 no effect, 100 complete control)
How it was run: as §4

[4] = 125 g ai/ha, visual rating, scale 0 (no effect) to 100 (complete control), postemergence
[5] = 500 g ai/ha, scale 0 to 100, 0 no effect, 100 complete control, preemergence
[6] = Postemergence, 500 g ai/ha, scale 0 (no effect) to 100 (complete control)
[7] = 125 g ai/ha, 0 is no effect, 100 is complete control, preemergence
[8] = postemergence, 125 g ai/ha, scale 0 to 100

With `C=CCN(CC=C)C(=O)c1cccc(NC(=O)c2nn(C(C)C)nc2CC)c1` [Compound 390] the “Rice plant response rating” value (rice; 1000 g ai/ha) was 30, the “Wheat plant response rating” value (wheat; [4]) was 0 and the “Wheat plant response rating” value (wheat; [5]) was 10. For the same compound, the “Wheat plant response rating” value (wheat; [6]) was 0, the “Plant response rating (0 to 100 scale), Corn” value (corn; [7]) was 0 and the “Corn plant response rating” value (corn; [4]) was 0. For the same compound, the “Corn plant response rating” value (corn; [6]) was 20, the “Oat, Wild plant response rating” value (wild oat; [4]) was 0 and the “Oat, Wild plant response rating” value (wild oat; [6]) was 10. The “Plant response rating (0 to 100 scale), Foxtail, Giant” value (giant foxtail; [7]) was 0, the “Foxtail, Giant plant response rating” value (giant foxtail; [4]) was 10 and the “Foxtail, Giant plant response rating” value (giant foxtail; [6]) was 30. The “Plant response rating (0 to 100 scale), Pigweed” value (pigweed; [7]) was 0, the “Pigweed plant response rating” value (pigweed; [4]) was 50 and the “Pigweed plant response rating” value (pigweed; [6]) was 60. For the same compound, the “Plant response rating (0 to 100 scale), Morningglory” value (morningglory; [7]) was 0, the “Morningglory plant response rating” value (morningglory; [4]) was 0 and the “Morningglory plant response rating” value (morningglory; [6]) was 40. The “Plant response rating (0 to 100 scale), Barnyardgrass” value (barnyardgrass [1]; [7]) was 0, the “Barnyardgrass plant response rating” value (barnyardgrass [1]; 125 g ai/ha, visual rating, postemergence) was 0 and the “Barnyardgrass plant response rating” value (barnyardgrass [1]; Postemergence, 500 g ai/ha) was 10. The “Plant response rating (0 to 100 scale), Cocklebur” value (cocklebur; [7]) was 0, the “Cocklebur plant response rating” value (cocklebur; [4]) was 20 and the “Cocklebur plant response rating” value (cocklebur; [6]) was 20. The “Plant response rating (0 to 100 scale), Surinam Grass” value (Surinam grass; [7]) was 0, the “Surinam Grass plant response rating” value (Surinam grass; [4]) was 0 and the “Surinam Grass plant response rating” value (Surinam grass; [6]) was 10. The “Ducksalad plant response rating” value (ducksalad; 1000 g ai/ha) was 40, the “Plant response rating (0 to 100 scale), Crabgrass, Large” value (large crabgrass; [7]) was 10 and the “Crabgrass, Large plant response rating” value (large crabgrass; [4]) was 10. The “Crabgrass, Large plant response rating” value (large crabgrass; [6]) was 20, the “Sedge, Umbrella plant response rating” value ([2]; 1000 g ai/ha) was 60 and the “Plant response rating (0 to 100 scale), Lambsquarters” value (lambsquarters; [7]) was 30. The “Lambsquarters plant response rating” value (lambsquarters; [4]) was 60, the “Lambsquarters plant response rating” value (lambsquarters; [6]) was 60 and the “Plant response rating (0 to 100 scale), Velvetleaf” value (velvetleaf; [7]) was 0. For the same compound, the “Velvetleaf plant response rating” value (velvetleaf; [4]) was 0, the “Velvetleaf plant response rating” value (velvetleaf; [6]) was 20 and the “Blackgrass plant response rating” value (blackgrass; [4]) was 0. The “Blackgrass plant response rating” value (blackgrass; [6]) was 10 and the “Barnyardgrass plant response rating” value (barnyardgrass [3]; 1000 g ai/ha) was 0.

`C=CCN(C(C)=O)C(=O)c1ccc(F)c(NC(=O)c2cc(C(C)(C)C)nn2CC)c1` [Compound 442] was tested, and the “Rice plant response rating” value (rice; 125 g ai/ha) was 30, the “Wheat plant response rating” value (wheat; [5]) was 70 and the “Wheat plant response rating” value (wheat; [6]) was 40. For the same compound, the “Wheat plant response rating” value (wheat; [8]) was 20, the “Corn plant response rating” value (corn; [6]) was 30 and the “Corn plant response rating” value (corn; [8]) was 30. The “Oat, Wild plant response rating” value (wild oat; [6]) was 60, the “Oat, Wild plant response rating” value (wild oat; [8]) was 50 and the “Foxtail, Giant plant response rating” value (giant foxtail; [6]) was 20. The “Foxtail, Giant plant response rating” value (giant foxtail; [8]) was 20, the “Pigweed plant response rating” value (pigweed; [6]) was 70 and the “Pigweed plant response rating” value (pigweed; [8]) was 50. For the same compound, the “Morningglory plant response rating” value (morningglory; [6]) was 30, the “Morningglory plant response rating” value (morningglory; [8]) was 20 and the “Barnyardgrass plant response rating” value (barnyardgrass [1]; Postemergence, 125 g ai/ha) was 10. The “Barnyardgrass plant response rating” value (barnyardgrass [1]; Postemergence, 500 g ai/ha) was 20, the “Cocklebur plant response rating” value (cocklebur; [6]) was 100 and the “Cocklebur plant response rating” value (cocklebur; [8]) was 80. For the same compound, the “Surinam Grass plant response rating” value (Surinam grass; [6]) was 20, the “Surinam Grass plant response rating” value (Surinam grass; [8]) was 20 and the “Ducksalad plant response rating” value (ducksalad; 125 g ai/ha) was 10. For the same compound, the “Crabgrass, Large plant response rating” value (large crabgrass; [6]) was 20, the “Crabgrass, Large plant response rating” value (large crabgrass; [8]) was 10 and the “Sedge, Umbrella plant response rating” value ([2]; 125 g ai/ha) was 70. The “Lambsquarters plant response rating” value (lambsquarters; [6]) was 70, the “Lambsquarters plant response rating” value (lambsquarters; [8]) was 40 and the “Velvetleaf plant response rating” value (velvetleaf; [6]) was 30. For the same compound, the “Velvetleaf plant response rating” value (velvetleaf; [8]) was 30, the “Blackgrass plant response rating” value (blackgrass; [6]) was 30 and the “Blackgrass plant response rating” value (blackgrass; [8]) was 30. The “Barnyardgrass plant response rating” value (barnyardgrass [3]; 125 g ai/ha) was 0.
